Results reported in US20250025440A1, “COMPOSITIONS AND METHODS FOR MANAGEMENT OF HUMAN PAPILLOMA VIRUS-ASSOCIATED CANCERS” (LOMA LINDA UNIVERSITY, priority 2021, published 2025).

Legend:
Type in all cases: cell-based
[1] = test system: HPV+ cell lines (SCC090, SCC104, SiHa); assay: Caspase 3/7 activity Glo assay; settings: 0.75 μM, 24 hours
Procedure: (§1) These findings were then confirmed by conducting a Caspase 3/7 activity Glo assay, which is a surrogate for apoptotic induction. Three HPV^+ cell lines (SCC090, SCC104, SiHa) and two HPV^− cell lines (SCC19, SCC84) were assessed for activity of caspases 3 and 7, and thus for apoptosis activity. […] FIG. 8B is a graphical representation of the Caspase 3/7 activity of gambogic acid in various HPV+ and HPV− cell lines. These cell lines were seeded in 96 well plates and treated with 0.75 uM GA-OH. Caspase 3/7 activity was measured after 24 hours. HPV^+ cell lines show high levels of Caspase 3/7 activity. […] FIG. 10 is a graphical representation of the cell viability as measured by MTT, when three HPV^+ cell lines (SCC090, SCC104, SiHa) and two HPV^− cell lines (SCC19, SCC84) were treated with gambogic acid.
(§2) Cells were seeded into white walled 96-well plates at 2×10^4 cells per well in 100 μL media and incubated overnight. GA-OH (0.75 μM) and vehicle were then added and incubated at 37° C. for 24 hr. Caspase 3/7 activity was measured using the Caspase 3/7 Glo kit (Promega, Fitchburg, WI, USA) following the manufacturer's instructions. Briefly, room temperature-equilibrated Caspase-Glo reagent was added (Promega) to each well. […] After a 2-hr incubation, luminescence was measured using a plate-reading fluorimeter (Flx800, Bio-Tek Instrument Co., Winooski, VT, USA). […]

[2] = test system: HPV- cell lines (SCC19, SCC84); assay: Caspase 3/7 activity Glo assay; settings: 0.75 μM, 24 hours
Procedure: as §1, §2

[3] = test system: SCC104 (HPV+ HNSCC cell line); assay: MTT cell viability of gambogic acid analogs; settings: SCC104, 24 hr
Procedure: Next, the analogs were evaluated for functional activity using the HPV^+ HNSCC cell line, SCC104, in the MTT assay as described previously to determine whether similar findings would be observed as in the in vitro AlphaScreen™ analysis. With one exception, the patterns were similar to the AlphaScreen™ data, but the differences were relatively more pronounced in the cell-based screen (FIG. 6B). […] Based on these findings, 30-hydroxygambogic acid (GA-OH) was selected as a candidate for more extensive functional studies.
Using the SciFinder and Zinc15 databases, several gambogic acid structural analogs were identified and selected. The 8 analogs were obtained as follow: gambogenic amide (Enzo Life Sciences), gambogenic acid (Selleckchem), morellic acid (Aobious), 30-hydroxy gambogic acid (Quality Phytochemicals, LLC), acetyl gambogic acid (Microsource), and gambogin, neogambogic acid and isomorellinol (MolPort Natural Products). Additional gambogic acid was purchased from Tocris. The interactions of the analogues with E6-caspase 8 was tested using AlphaScreen™ technology using the same protocol as with the primary screen, and were compared to the parent compound. The effect on cell viability was also similarly done in HPV^+ and HPV^− cell lines via the MTT assay (see below) and potency was determined using GraphPad IC50 curve fitting.
All working concentrations were diluted in PBS to the desired concentration before use. To test the effect of gambogic acid and/or its derivatives on cell viability, all cell lines were seeded at 2×10^4 per well in 96-well plates and allowed to adhere overnight. Various concentrations of the analogues were added and the cells incubated at 37° C. for 24 hr. Viability was then measured using the MTT assay, performed as described previously. All experiments were repeated at least three times (three biological replicates, carried out on different days). Data presented are from a representative experiment. Cell viability and potency were assessed from % inhibition relative to the vehicle control, and IC50 dose curves were generated using GraphPad Prism.

SCC19 (HPV-) cells = assay: Western blotting of p53 and apoptosis mediators; settings: HPV- cell line, 0.5 μM and 1 μM, 24 hours
Procedure: (§3) Based on the cell viability studies described above, as well as AlphaScreen™ data showing that that GA-OH prevents E6 from binding to both caspase 8 and the p53-recruiter, E6AP, activation of p53 and associated apoptotic effects could be contributing to the decrease in cell viability. Levels of p53 and its target gene product, p21, were evaluated using immunoblotting. […] FIG. 8A is a photographic image of blots analyzing Caspase 8 expression and activation of downstream targets. SCC19, SCC90 and SCC104 were seeded and treated with vehicle, 0.5 μM and 1 μM Of GA-OH for 24 hours. Activation of p53 was tested by blotting for p53 expression and activation. Caspase 8 activation and apoptosis was tested by blotting for Caspase 8 expression and activation of downstream targets. These observations were corroborated by an induction of the levels of the target of p53, p21. […] The basal levels of p53 in the HPV^+ cell lines are lower compared to the HPV^− cell line.
(§4) The effect of GA-OH treatment on activation of another target of E6, caspase 8, and its downstream targets in the apoptosis cascade was evaluated. […] There is a noticeable increase in caspase 8 levels in the HPV^− cell line upon exposure to GA-OH. […] Quantification of relative expression of each of the targets above using B-actin as a loading control. FIGS. 9A-9E are graphical representations of the relative expression of cleaved PARP, p53, p21, cleaved caspase 3, and cleaved caspase 8, respectively in SCC19, SCC90 and SCC104 cell lines when treated with vehicle, or 0.5 μM, or 1 μM of GA-OH, each of the targets above using B-actin as a loading control is shown.
(§5) Adherent cells were washed with ice cold PBS. Cell lysis buffer containing protease inhibitor cocktail was added and cells were scraped off into a tube on ice. The cells were incubated on ice for 10 minutes. Cell lysates were separated by SDS-PAGE and electrophoretically transferred to PVDF membranes. Following blocking, antibodies directed against caspase 8, p53, cleaved PARP, cleaved caspase 3, p21, and β-actin (Cell signaling) were applied at 1:5000 dilution. Anti-mouse and anti-rabbit secondary antibodies were then employed (LI-COR Biosciences, Lincoln, NE, USA). Signals were measured using the Odyssey Infrared Imaging system (LI-COR Biosciences) and quantified using Image J.

[4] = test system: SCC90 and SCC104 (HPV+) cells; assay: Western blotting of p53 and apoptosis mediators; settings: 0.5 μM and 1 μM, 24 hours
Procedure: as §3, §4, §5

Q: How did the “Caspase 3/7 activity (apoptosis induction)” value [1] turn out when 30-hydroxygambogic acid [GA-OH] was run?
A: Significant apoptosis induction

Q: And the “Caspase 3/7 activity (apoptosis induction)” value [2]?
A: little to no apoptosis activity

Q: What about the “potency in MTT assay” value [3] of the same substance?
A: highest potency of all analogs

Q: What about the “caspase 8 cleavage” value (SCC19 (HPV-) cells) of the same substance?
A: no visible cleavage of caspase 8

Q: What about the PARP cleavage [4] of the same substance?
A: cleavage is modest

Q: What about the “caspase 3 cleavage” value [4] of the same substance?
A: cleaved dose-dependently

Q: What about the “caspase 8 cleavage” value [4] of the same substance?
A: cleavage of caspase 8 in a dose-dependent manner

Q: What about the p53 level [4] of the same substance?
A: increase of p53

Q: And the p21 level ([4]; vs vehicle)?
A: robust induction of p21 levels
